From BindingDB's records for doi:10.1021/jm990397l (University of Groningen, 2000)

Target: 5-HT1D receptor (Bos taurus)
Assay: Inhibition affinity against 5-HT-1D receptor in bovine caudate nucleus using radio binding assay

- IC50: > 1000 nM
Structure (SMILES): Cc1nc(-c2ccc(-c3ccc(C(=O)Nc4ccc(OS(=O)(=O)C(F)(F)F)c(N5CCN(C)CC5)c4)cc3)c(C)c2)no1 [Trifluoro-methanesulfonic acid 4-{[2'-methyl-4'-(5-methyl-[1,2,4]oxadiazol-3-yl)-biphenyl-4-carbonyl]-amino}-2-(4-methyl-piperazin-1-yl)-phenyl ester]
